Test in all cases: MIC against standard strains (agar dilution)
Common to all, as to format: cell-based
Background: Agar dilution tests growth on a series of plates holding different concentrations.

One assay deals with Staphylococcus aureus 77. Conditions: Staphylococcus aureus 77; Mueller-Hinton agar, 20 hours at 37°C; read-out: MIC. In short, it runs like this:
(§1)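 Read-out is the lowest compound concentration preventing visible growth on Mueller-Hinton agar. Inocula of 10^7 cfu/mℓ were applied to plates containing 2-fold dilutions, then incubated 20 hours at 37°C.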

In assay [1] the test system is Pseudomonas aeruginosa 6065Y. Conditions: Pseudomonas aeruginosa 6065Y; Mueller-Hinton agar, 20 hours at 37°C; read-out: MIC. Summed up:
as §1

A further assay relates to Escherichia coli 10536. Conditions: Escherichia coli 10536; Mueller-Hinton agar, 20 hours at 37°C; read-out: MIC. In short, it runs like this:
as §1

Assay [2] concerns Citrobacter diversus 2046E. Conditions: Citrobacter koseri; Citrobacter diversus 2046E; Mueller-Hinton agar, 20 hours at 37°C; read-out: MIC. Summed up: as §1
In assay [3] the test system is Serratia marcescens 1826E. Conditions: Serratia marcescens 1826E; Mueller-Hinton agar, 20 hours at 37°C; read-out: MIC. In short, it runs like this:
as §1

A further assay deals with Escherichia coli 3190Y. The settings on record: Escherichia coli, 3190Y, 20 h. In short, it runs like this: as §1
For assay [4], the system named is Escherichia coli TEM3 3455E. Conditions: TEM33455E, 20 h. In short, it runs like this: as §1
For assay [5], the system named is Morganella morganii 1375E. Conditions: Morganella morganii 1375E; Mueller-Hinton agar, 20 hours at 37°C; read-out: MIC. In short, it runs like this:
as §1

For assay [6], the system named is Escherichia coli TEM9 2639E. Conditions: TEM92639E; Escherichia coli TEM9 2639E; Mueller-Hinton agar, 20 hours at 37°C; read-out: MIC. In short, it runs like this: as §1
Assay [7] concerns Enterococcus faecalis 29212. Conditions: Enterococcus faecalis 29212; Mueller-Hinton agar, 20 hours at 37°C; read-out: MIC. Summed up: as §1

Converted amounts (≈) assume the structure as drawn.

In general, MIC refers to the least concentration at which growth counts as inhibited.

Take `CO/N=C(\C(=O)NC1C(=O)N2C(C(=O)O)=C(Sc3cc(N)nc(N)n3)CSC12)c1csc(N)n1` (stereo not shown) [Compound No. 25, 7-[(Z)-2-(2-amino-thiazol-4-yl)-2-methoxyimino-acetylamino]-3-(2,6-diamino-pyrimidin-4-ylsulfanyl)-8-oxo-5-thia-1-azabicyclo[4,2,0]oct-2-ene-2-carboxylic acid]: the MIC in the assay with Staphylococcus aureus 77 was 4 µg/mL (≈ 7.64 µM); in assay [1] it was 64 µg/mL (≈ 122 µM); in the assay with Escherichia coli 10536 it was 0.063 µg/mL (≈ 0.12 µM); in assay [2], over 64 µg/mL; in assay [3], 2 µg/mL (≈ 3.82 µM); in the assay with Escherichia coli 3190Y, 0.031 µg/mL (≈ 0.0592 µM). Also, the MIC in [4] was 8 µg/mL (≈ 15.3 µM); in assay [5], 0.13 µg/mL (≈ 0.248 µM); in assay [6], 32 µg/mL (≈ 61.1 µM); in assay [7], over 64 µg/mL.

These data come from EP1077981B1, “NOVEL CEPHALOSPORIN COMPOUNDS, PROCESSES FOR PREPARATION THEREOF AND ANTIMICROBIAL COMPOSITIONS CONTAINING THE SAME” (LG CHEMICAL LIMITED, priority 1998, dated 1999).
